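A five-concentration, 48-hour dose response in 96-well plates underlies each endpoint, interpolated linearly between surrounding concentrations. GI50 = concentration required for 50% inhibition of growth. TGI is the concentration that stops growth completely.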
Assays:
Test in all cases: DTP human tumour cell line panel, 48 h
786-0 renal = system: 786-0 renal
A498 renal = system: A498 renal
A549 NSCLC = system: A549 NSCLC
ACHN renal = system: ACHN renal
BT-549 breast = system: BT-549 breast
CAKI-1 renal = system: CAKI-1 renal
CCRF-CEM leukemia = system: CCRF-CEM leukemia
COLO 205 colon = system: COLO 205 colon
DU-145 prostate = system: DU-145 prostate
EKVX NSCLC = system: EKVX NSCLC
HCC-2998 colon = system: HCC-2998 colon
HCT-116 colon = system: HCT-116 colon
HCT-15 colon = system: HCT-15 colon
HOP-62 NSCLC = system: HOP-62 NSCLC
HOP-92 NSCLC = system: HOP-92 NSCLC
HS 578T breast = system: HS 578T breast
HT29 colon = system: HT29 colon
IGROV1 ovarian = system: IGROV1 ovarian
KM12 colon = system: KM12 colon
LOX IMVI melanoma = system: LOX IMVI melanoma
M14 melanoma = system: M14 melanoma
MALME-3M melanoma = system: MALME-3M melanoma
MCF7 breast = system: MCF7 breast
MDA-MB-231 breast = system: MDA-MB-231 breast
MDA-MB-435 = system: MDA-MB-435
MOLT-4 leukemia = system: MOLT-4 leukemia
NCI-H226 lung = system: NCI-H226 lung
NCI-H23 lung = system: NCI-H23 lung
NCI-H460 lung = system: NCI-H460 lung
NCI-H522 lung = system: NCI-H522 lung
NCI/ADR-RES ovarian = system: NCI/ADR-RES ovarian
OVCAR-3 ovarian = system: OVCAR-3 ovarian
OVCAR-4 ovarian = system: OVCAR-4 ovarian
OVCAR-5 ovarian = system: OVCAR-5 ovarian
OVCAR-8 ovarian = system: OVCAR-8 ovarian
PC-3 prostate = system: PC-3 prostate
RPMI-8226 leukemia = system: RPMI-8226 leukemia
RXF 393 renal = system: RXF 393 renal
SF-268 CNS = system: SF-268 CNS
SF-295 CNS = system: SF-295 CNS
SF-539 CNS = system: SF-539 CNS
SK-MEL-2 melanoma = system: SK-MEL-2 melanoma
SK-MEL-28 melanoma = system: SK-MEL-28 melanoma
SK-MEL-5 melanoma = system: SK-MEL-5 melanoma
SK-OV-3 ovarian = system: SK-OV-3 ovarian
SN12C renal = system: SN12C renal
SNB-19 CNS = system: SNB-19 CNS
SNB-75 CNS = system: SNB-75 CNS
SR leukemia = system: SR leukemia
SW-620 colon = system: SW-620 colon
T-47D breast = system: T-47D breast
TK-10 renal = system: TK-10 renal
U251 CNS = system: U251 CNS
UACC-257 melanoma = system: UACC-257 melanoma
UACC-62 melanoma = system: UACC-62 melanoma
UO-31 renal = system: UO-31 renal

Compound: CC(=O)c1ccc(N(/C=C/C(=O)C(F)(F)F)CC(=O)c2ccc(Cl)c(Cl)c2)cc1
- GI50 (786-0 renal): 17.8 µM
- TGI (786-0 renal): 32 µM
- GI50 (A498 renal): 14.5 µM
- TGI (A498 renal): 28.2 µM
- GI50 (A549 NSCLC): 14.2 µM
- TGI (A549 NSCLC): 33.5 µM
- GI50 (ACHN renal): 14.4 µM
- TGI (ACHN renal): 27.7 µM
- GI50 (BT-549 breast): 19.9 µM
- TGI (BT-549 breast): 38.9 µM
- GI50 (CAKI-1 renal): 16.4 µM
- TGI (CAKI-1 renal): 33.1 µM
- GI50 (CCRF-CEM leukemia): 10.4 µM
- TGI (CCRF-CEM leukemia): 36.9 µM
- GI50 (COLO 205 colon): 22.6 µM
- TGI (COLO 205 colon): 65 µM
- GI50 (DU-145 prostate): 19.2 µM
- TGI (DU-145 prostate): 36.1 µM
- GI50 (EKVX NSCLC): 19.9 µM
- TGI (EKVX NSCLC): 38.5 µM
- GI50 (HCC-2998 colon): 18.5 µM
- TGI (HCC-2998 colon): 34.9 µM
- GI50 (HCT-116 colon): 13.4 µM
- TGI (HCT-116 colon): 26.2 µM
- GI50 (HCT-15 colon): 13.4 µM
- TGI (HCT-15 colon): 29.2 µM
- GI50 (HOP-62 NSCLC): 15.3 µM
- TGI (HOP-62 NSCLC): 28.7 µM
- GI50 (HOP-92 NSCLC): 13.5 µM
- TGI (HOP-92 NSCLC): 29 µM
- GI50 (HS 578T breast): 20.3 µM
- TGI (HS 578T breast): 45.2 µM
- GI50 (HT29 colon): 24.4 µM
- TGI (HT29 colon): > 100 µM
- GI50 (IGROV1 ovarian): 13.9 µM
- TGI (IGROV1 ovarian): 28.4 µM
- GI50 (KM12 colon): 12.8 µM
- TGI (KM12 colon): 27.1 µM
- GI50 (LOX IMVI melanoma): 12.4 µM
- TGI (LOX IMVI melanoma): 26.8 µM
- GI50 (M14 melanoma): 13.3 µM
- TGI (M14 melanoma): 26.7 µM
- GI50 (MALME-3M melanoma): 11.7 µM
- TGI (MALME-3M melanoma): 25 µM
- GI50 (MCF7 breast): 15.3 µM
- TGI (MCF7 breast): 65.3 µM
- GI50 (MDA-MB-231 breast): 11.6 µM
- TGI (MDA-MB-231 breast): 25 µM
- GI50 (MDA-MB-435): 3.43 µM
- TGI (MDA-MB-435): 11.7 µM
- GI50 (MOLT-4 leukemia): 4.18 µM
- TGI (MOLT-4 leukemia): 27.2 µM
- GI50 (NCI-H226 lung): 10.9 µM
- TGI (NCI-H226 lung): 27.3 µM
- GI50 (NCI-H23 lung): 18 µM
- TGI (NCI-H23 lung): 35.6 µM
- GI50 (NCI-H460 lung): 15.6 µM
- TGI (NCI-H460 lung): > 100 µM
- GI50 (NCI-H522 lung): 13.2 µM
- TGI (NCI-H522 lung): 27.7 µM
- GI50 (NCI/ADR-RES ovarian): 18.2 µM
- TGI (NCI/ADR-RES ovarian): 38.4 µM
- GI50 (OVCAR-3 ovarian): 13.9 µM
- TGI (OVCAR-3 ovarian): 27.5 µM
- GI50 (OVCAR-4 ovarian): 14 µM
- TGI (OVCAR-4 ovarian): 33.4 µM
- GI50 (OVCAR-5 ovarian): 18.6 µM
- TGI (OVCAR-5 ovarian): 35.9 µM
- GI50 (OVCAR-8 ovarian): 16.1 µM
- TGI (OVCAR-8 ovarian): 31.4 µM
- GI50 (PC-3 prostate): 11.5 µM
- TGI (PC-3 prostate): 30.2 µM
- GI50 (RPMI-8226 leukemia): 9.64 µM
- TGI (RPMI-8226 leukemia): 36.6 µM
- GI50 (RXF 393 renal): 13.9 µM
- TGI (RXF 393 renal): 30.4 µM
- GI50 (SF-268 CNS): 14.2 µM
- TGI (SF-268 CNS): 31.5 µM
- GI50 (SF-295 CNS): 12.3 µM
- TGI (SF-295 CNS): 26.2 µM
- GI50 (SF-539 CNS): 20.5 µM
- TGI (SF-539 CNS): 36.6 µM
- GI50 (SK-MEL-2 melanoma): 15.3 µM
- TGI (SK-MEL-2 melanoma): 30.4 µM
- GI50 (SK-MEL-28 melanoma): 16.5 µM
- TGI (SK-MEL-28 melanoma): 40.7 µM
- GI50 (SK-MEL-5 melanoma): 17.7 µM
- TGI (SK-MEL-5 melanoma): 32.4 µM
- GI50 (SK-OV-3 ovarian): 18.1 µM
- TGI (SK-OV-3 ovarian): 38.9 µM
- GI50 (SN12C renal): 15 µM
- TGI (SN12C renal): 28.8 µM
- GI50 (SNB-19 CNS): 19.3 µM
- TGI (SNB-19 CNS): 41.6 µM
- GI50 (SNB-75 CNS): 18 µM
- TGI (SNB-75 CNS): 38.3 µM
- GI50 (SR leukemia): 3.59 µM
- TGI (SR leukemia): 19.3 µM
- GI50 (SW-620 colon): 18.3 µM
- TGI (SW-620 colon): 34.8 µM
- GI50 (T-47D breast): 26.4 µM
- TGI (T-47D breast): 75.4 µM
- GI50 (TK-10 renal): 15.8 µM
- TGI (TK-10 renal): 32.8 µM
- GI50 (U251 CNS): 14 µM
- TGI (U251 CNS): 27.7 µM
- GI50 (UACC-257 melanoma): 15.2 µM
- TGI (UACC-257 melanoma): 29.4 µM
- GI50 (UACC-62 melanoma): 7.01 µM
- TGI (UACC-62 melanoma): 19.8 µM
- GI50 (UO-31 renal): 16.5 µM
- TGI (UO-31 renal): 30.5 µM

— PubChem BioAssay (NCI)
